US5633227A, “Secretory leukocyte protease inhibitor as an inhibitor of tryptase” (Miles, Inc., priority 1994, dated 1997)
Ends that are not written are not given here. * marks the point of attachment. Dansyl = CN(C)c1cccc2c(S(=O)(=O)*)cccc12

How the values were obtained:
[1] = molecular target: tryptase; test: GPK-AMC assay for tryptase activity (Dixon plot); assay type: biochemical, human; details: 20 and 40 μM GPK-AMC; 37° C.; read-out: Ki for inhibition of tryptase catalyzed cleavage of GPK-AMC
Protocol: Tryptase activity was measured according to the procedure of Schwartz, et al., J. Biol. Chem., 261, 7372-7379 (1986) , with minor modifications, using Gly-Pro-Lys-Aminomethylcoumarin (GPK-AMC) as a substrate. The reaction was performed in assay buffer (0.1M Tris, pH 8.0, 10 μg/ml heparin) at room temperature in a 96-well microtiter plate (Perkin-Elmer, Norwalk, Conn.). The amount of coumarin produced by tryptase was determined by measuring the fluorescence (ex=372 nm, em=432 nm) on a Perkin-Elmer LS-50B fluorimeter equipped with a plate reader. 50 μl of tryptase (final concentration of 333 pM) was mixed with either 50 μl of the sample to be tested or with assay buffer and incubated for 5 min. at room temperature. […] The fluorescence intensity was measured every 5 minutes. For samples that were being tested for modulators of tryptase activity, the % inhibition for each fraction was determined by:
Inhibitory activity against tryptase and bovine trypsin was measured using Gly-Pro-Lys-aminomethylcoumarin as a substrate. […] The amount of coumarin produced was determined by measuring the fluorescence (ex=370 nm, em=432 nm) on a Perkin-Elmer LS-50B fluorimeter. […] The reaction was started by the addition of the substrate GPK-AMC (20 or 40 μM final) and the increase in fluorescence was measured over a 2 minute period. […]

[2] = test system: human mast cell tryptase; test: VIP assay for tryptase activity (Dns-VIP hydrolysis, HPLC/fluorescence, Dixon plot); assay type: biochemical; details: 0.4 and 0.8 μM VIP; 12.5 pM tryptase; 37° C.; read-out: Ki for inhibition of the formation of Dns-VIP-(1-14)
Protocol: In a typical assay, mast cell tryptase (12.5 pM) was incubated at 37° C. with dansyl-VIP (0.2-2 μM) in 100 mM Tris-HCl (pH 8.0) containing 1 μg/ml porcine mucosal heparin and 0.02% Triton X-100 in a final volume of 2.0 ml. To some samples, secretory leukocyte protease inhibitor was added to a final concentration of between 0 and 107 nM. The tryptase was pre-incubated with the SLPI, if added, for 5 min. at 37° C. before initiating the reaction by the addition of Dns-VIP. Aliquots (250 μl) were removed at 0, 2.5, 5.0, 7.5, 10, and 20 minutes to micro-vials (Sunbrokers) and the reaction terminated by the addition of TFA to a final concentration of 3% (v/v). The acidified reaction mixture was subjected to chromatography on a C-18 reverse-phase column (Vydac, 5 micron, 0.46×25 cm). Peptide hydrolysis was monitored by HPLC using a Hewlett Packard HP1090 unit complete with binary solvent delivery and autoinjection capability. Fluorescent detection (postcolumn) was performed with an inline Gilson Model 121 filter fluorimeter (excitation at 310-410 nm, emission at 480-520 nm). Dns-VIP fragments were separated from any unconverted Dns-VIP using a linear gradient of 69:31 (v/v) to 50:50 (v/v) C:D over 5.5 minutes (C=100 mM sodium acetate, pH 6.5 plus 0.2% sodium azide, D=80% ACN in water), with return to 69:31 (v/v) C:D at 6.5 minutes. Chromatography was performed at 1.0 ml/min at 25° C. […]

[3] = test system: human mast cell tryptase; test: Kinetic parameters for enzymatic cleavage of Dns-VIP by tryptase; assay type: biochemical
Protocol: In a typical assay, mast cell tryptase (12.5 pM) was incubated at 37° C. with dansyl-VIP (0.2-2 μM) in 100 mM Tris-HCl (pH 8.0) containing 1 μg/ml porcine mucosal heparin and 0.02% Triton X-100 in a final volume of 2.0 ml. To some samples, secretory leukocyte protease inhibitor was added to a final concentration of between 0 and 107 nM. The tryptase was pre-incubated with the SLPI, if added, for 5 min. at 37° C. before initiating the reaction by the addition of Dns-VIP. Aliquots (250 μl) were removed at 0, 2.5, 5.0, 7.5, 10, and 20 minutes to micro-vials (Sunbrokers) and the reaction terminated by the addition of TFA to a final concentration of 3% (v/v). The acidified reaction mixture was subjected to chromatography on a C-18 reverse-phase column (Vydac, 5 micron, 0.46×25 cm). Peptide hydrolysis was monitored by HPLC using a Hewlett Packard HP1090 unit complete with binary solvent delivery and autoinjection capability. Fluorescent detection (postcolumn) was performed with an inline Gilson Model 121 filter fluorimeter (excitation at 310-410 nm, emission at 480-520 nm). Dns-VIP fragments were separated from any unconverted Dns-VIP using a linear gradient of 69:31 (v/v) to 50:50 (v/v) C:D over 5.5 minutes (C=100 mM sodium acetate, pH 6.5 plus 0.2% sodium azide, D=80% ACN in water), with return to 69:31 (v/v) C:D at 6.5 minutes. Chromatography was performed at 1.0 ml/min at 25° C. The N-terminal fluorescent products were identified by subjecting known VIP fragments (see above) to chromatography under identical conditions.
The kinetic parameters Km, kcat, and Vmax for the initial rate of formation of Dns-VIP-(1-14) and Dns-VIP-(1-20), as well as the initial rate of disappearance of full-length Dns-VIP were determined. The initial velocity for the formation of Dns-VIP-(1-20) also contains the rate for the formation of Dns-VIP-(1-21) since it appears as a shoulder on the Dns-VIP-(1-20) peak within the elution profile. […] The effect of salt concentration on the initial rates of cleavage of Dns-VIP was measured in 150 mM NaCl and 10 mM CaCl2. In all cases, the kcat/Km values decreased with increasing salt concentration. […] However, this effect was offset by an increase in all of the Km values. […] The results for 10 mM CaCl2 were similar in that Km and Vmax values increased and kcat/Km ratios decreased.
Initial reaction velocities were obtained from a linear least squares analysis of the linear part of a plot of the number of picomoles of each product produced vs. time and where less than 10% of the total Dns-VIP was consumed. To determine the Ki value, a Dixon plot of the form 1/V vs. [I] was made for data collected at two different concentrations of VIP, where V is the velocity (pmoles/min) and [I] is the concentration of SLPI used.

[4] = molecular target: T1, bovine trypsin (Bos taurus, UniProt P00760); test: GPK-AMC assay for trypsin activity (Dixon plot); assay type: biochemical; details: at a concentration of 1800 nM
T1 sequence (P00760 24-246): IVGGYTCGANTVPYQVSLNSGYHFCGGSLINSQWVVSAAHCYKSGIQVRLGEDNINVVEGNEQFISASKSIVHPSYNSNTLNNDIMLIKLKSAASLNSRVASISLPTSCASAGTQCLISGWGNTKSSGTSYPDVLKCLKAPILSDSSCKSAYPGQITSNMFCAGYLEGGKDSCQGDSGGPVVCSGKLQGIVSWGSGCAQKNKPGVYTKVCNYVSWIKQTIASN
Protocol: Inhibitory activity against tryptase and bovine trypsin was measured using Gly-Pro-Lys-aminomethylcoumarin as a substrate. The reaction was performed in assay buffer that consisted of 0.1M Tris (pH 8.0), 1 μg/ml heparin, 0.02% Triton X-100, with 20 mM CaCl2 included only in the trypsin assays. The amount of coumarin produced was determined by measuring the fluorescence (ex=370 nm, em=432 nm) on a Perkin-Elmer LS-50B fluorimeter. To measure tryptase activity, 12 μl of a 1 nM solution of tryptase (tetramer) was incubated with either the N- (34 to 650 nM final) or the C-terminal (7-150 nM final) domain of SLPI in 1.0 ml of assay buffer for 5 minutes at 37° C. The reaction was started by the addition of the substrate GPK-AMC (20 or 40 μM final) and the increase in fluorescence was measured over a 2 minute period. In order to measure trypsin activity, 3.3 μl of a 10 μg/ml solution was incubated with either the N- or C- terminal domains of SLPI, and assayed using both 10 and 20 μM GPK-AMC. To determine Ki values, Dixon plots of the form 1/V vs [I] were constructed.

Substance: C-terminal domain: C-terminal domain of SLPI, amino acids 50-107, from formic acid cleavage of recombinant SLPI (PVDTPNPTRRKPGKCPVTYGQCLMLNPPNFCEMDGQCKRDLKCCMGMCGKSCVSPVKA)
- Ki [1]: 0.0048 µM
- Ki [2]: 0.0016 µM

Substance: Dns-VIP-(1-14): Dansyl-VIP fragment of amino acids 1-14 formed by tryptase cleavage after Arg-14 (Dansyl-HSDAVFTDNYTRLR; UniProt P01282 125-138, looked up, fragment)
- decrease in the kcat/Km ratio ([3]; 10 mM CaCl2 vs no addition): 9 fold
- decrease in the kcat/Km ratio ([3]; 150 mM NaCl vs no addition): 16 fold
- increase in Km ([3]; 150 mM NaCl vs no addition): 59 fold
- increase in Vmax ([3]; 150 mM NaCl vs no addition): 4 fold
- Km ([3]; Addition: 10 mM CaCl2): 4.1 µM
- Vmax ([3]; Addition: 10 mM CaCl2): 4.5 pmol/min/mg
- kcat/Km ([3]; Addition: 10 mM CaCl2): 0.25 M^-1 sec^1 × 10^7
- Km ([3]; Addition: 150 mM NaCl): 7.7 µM
- Vmax ([3]; Addition: 150 mM NaCl): 4.9 pmol/min/mg
- kcat/Km ([3]; Addition: 150 mM NaCl): 0.14 M^-1 sec^1 × 10^7
- Km ([3]; Addition: None): 0.1 µM
- Vmax ([3]; Addition: None): 1.3 pmol/min/mg
- kcat/Km ([3]; Addition: None): 2.3 M^-1 sec^1 × 10^7

Substance: Dns-VIP-(1-20): Dansyl-VIP fragment of amino acids 1-20 formed by tryptase cleavage after Lys-20; peak includes the 1-21 shoulder (Dansyl-HSDAVFTDNYTRLRKQMAVK; UniProt P01282 125-144, looked up, fragment)
- decrease in the kcat/Km ratio ([3]; 10 mM CaCl2 vs no addition): 11 fold
- decrease in the kcat/Km ratio ([3]; 150 mM NaCl vs no addition): 47 fold
- increase in Km ([3]; 150 mM NaCl vs no addition): 72 fold
- Km ([3]; Addition: 10 mM CaCl2): 4.5 µM
- Vmax ([3]; Addition: 10 mM CaCl2): 2.6 pmol/min/mg
- kcat/Km ([3]; Addition: 10 mM CaCl2): 0.13 M^-1 sec^1 × 10^7
- Km ([3]; Addition: 150 mM NaCl): 9.4 µM
- Vmax ([3]; Addition: 150 mM NaCl): 1.1 pmol/min/mg
- kcat/Km ([3]; Addition: 150 mM NaCl): 0.03 M^-1 sec^1 × 10^7
- Km ([3]; Addition: None): 0.1 µM
- Vmax ([3]; Addition: None): 0.6 pmol/min/mg
- kcat/Km ([3]; Addition: None): 1.4 M^-1 sec^1 × 10^7

Substance: Dns-VIP: N-terminally dansylated vasoactive intestinal peptide (28 amino acids), tryptase substrate (Dansyl-HSDAVFTDNYTRLRKQMAVKKYLNSILN; ends and bridges not checked; also: synthesized on Rink resin (C-terminus not given here))
- decrease in the kcat/Km ratio ([3]; 10 mM CaCl2 vs no addition): ~5 fold
- decrease in the kcat/Km ratio ([3]; 150 mM NaCl vs no addition): 9 fold
- increase in Km ([3]; 150 mM NaCl vs no addition): 14 fold
- Km ([3]; Addition: 10 mM CaCl2): 4.7 µM
- Vmax ([3]; Addition: 10 mM CaCl2): 8.2 pmol/min/mg
- kcat/Km ([3]; Addition: 10 mM CaCl2): 0.4 M^-1 sec^1 × 10^7
- Km ([3]; Addition: 150 mM NaCl): 7.4 µM
- Vmax ([3]; Addition: 150 mM NaCl): 6.6 pmol/min/mg
- kcat/Km ([3]; Addition: 150 mM NaCl): 0.2 M^-1 sec^1 × 10^7
- Km ([3]; Addition: None): 0.5 µM
- Vmax ([3]; Addition: None): 4.3 pmol/min/mg
- kcat/Km ([3]; Addition: None): 1.8 M^-1 sec^1 × 10^7

Substance: N-terminal domain: N-terminal domain of SLPI, amino acids 1-49, from formic acid cleavage of recombinant SLPI (SGKSFKAGVCPPKKSAQCLRYKKPECQSDWQCPGKKRCCPDTCGIKCLD)
- Inhibition of trypsin [4]: unable to inhibit
- Ki [1]: 0.29 µM
- Ki [2]: 0.13 µM
